Results reported in patent US11618747B2, “LXR modulators with bicyclic core moiety” (OrsoBio, Inc., priority 2018, dated 2023).
Read-outs that look alike come from different tables or passages of the source.

What was measured:
full length (FL) LXRα = molecular target: T1, full length (FL) LXRα (Homo sapiens, UniProt Q13133); experiment: LXR Gal4 reporter transient transfection assay (FL-M2H Gal4α); format: cell-based; details: HEK293 cells
T1 construct: the full length (FL) proteins of LXRα (amino acids 1-447); NP005684; expressed in transfected cells; host or cells: HEK293
T1 sequence (Q13133 1-447): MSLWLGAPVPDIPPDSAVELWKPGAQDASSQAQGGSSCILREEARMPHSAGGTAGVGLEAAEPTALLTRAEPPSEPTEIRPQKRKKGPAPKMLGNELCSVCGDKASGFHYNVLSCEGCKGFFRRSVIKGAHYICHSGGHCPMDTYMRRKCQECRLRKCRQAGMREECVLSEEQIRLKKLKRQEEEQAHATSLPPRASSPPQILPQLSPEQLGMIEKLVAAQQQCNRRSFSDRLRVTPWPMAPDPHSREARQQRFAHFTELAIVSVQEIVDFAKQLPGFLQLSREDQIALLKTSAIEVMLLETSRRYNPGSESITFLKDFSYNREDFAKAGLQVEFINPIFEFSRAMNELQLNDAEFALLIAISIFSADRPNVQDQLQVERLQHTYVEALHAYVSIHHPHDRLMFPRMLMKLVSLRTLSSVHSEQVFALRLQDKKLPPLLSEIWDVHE
Procedure, shortened: (§1)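 Mammalian two-hybrid in HEK293 cells transiently transfected with NFkB-AD-fused FL or LBD LXR plus GAL4-BD-fused SRC1 or NCoR cofactor domains and GAL4-responsive firefly luciferase reporter, Renilla-normalized. Compound added 4 h post-transfection (≤0.2% DMSO), 16 h incubation, luminescence read.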

[1] = molecular target: T2, ligand-binding domain (LBD) of LXRβ (Homo sapiens, UniProt P55055, DUP175-175); experiment: LXR Gal4 reporter transient transfection assay (LBD-M2H Gal4β); format: cell-based; details: HEK293 cells
T2 construct: LXRβ (amino acids 156-461); expressed in transfected cells; host or cells: HEK293
T2 sequence (P55055 with tags, fused parts or gaps DUP175-175 limits assumed): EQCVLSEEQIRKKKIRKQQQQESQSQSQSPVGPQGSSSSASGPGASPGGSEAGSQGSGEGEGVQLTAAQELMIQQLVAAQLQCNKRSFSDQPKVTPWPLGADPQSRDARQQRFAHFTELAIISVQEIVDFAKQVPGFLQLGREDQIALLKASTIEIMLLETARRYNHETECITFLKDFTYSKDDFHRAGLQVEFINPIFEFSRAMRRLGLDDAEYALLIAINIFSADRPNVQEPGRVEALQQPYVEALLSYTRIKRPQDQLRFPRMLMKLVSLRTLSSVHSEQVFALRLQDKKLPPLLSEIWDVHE
Procedure, shortened: as §1

full length (FL) LXRβ = molecular target: T3, full length (FL) LXRβ (Homo sapiens, UniProt P55055, DUP175-175); experiment: LXR Gal4 reporter transient transfection assay (FL-M2H Gal4β); format: cell-based; details: HEK293 cells
T3 construct: the full length (FL) proteins of LXRα (amino acids 1-447); NP005684; NP009052; expressed in transfected cells; host or cells: HEK293
T3 sequence (P55055 with tags, fused parts or gaps DUP175-175): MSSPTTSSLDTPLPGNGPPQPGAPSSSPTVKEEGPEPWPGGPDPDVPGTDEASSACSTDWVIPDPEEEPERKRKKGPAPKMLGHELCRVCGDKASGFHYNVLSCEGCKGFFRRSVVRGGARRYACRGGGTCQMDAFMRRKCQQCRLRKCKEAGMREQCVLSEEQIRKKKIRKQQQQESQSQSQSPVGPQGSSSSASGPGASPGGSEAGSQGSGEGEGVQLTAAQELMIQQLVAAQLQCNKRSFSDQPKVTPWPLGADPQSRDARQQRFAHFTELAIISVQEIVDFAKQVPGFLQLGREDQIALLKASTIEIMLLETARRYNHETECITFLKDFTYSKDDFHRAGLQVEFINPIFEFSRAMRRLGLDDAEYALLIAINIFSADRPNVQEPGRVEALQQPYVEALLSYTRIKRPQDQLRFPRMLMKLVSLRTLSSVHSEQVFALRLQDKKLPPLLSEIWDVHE
Procedure, shortened: as §1

[2] = Pharmacokinetics in mice after single oral dosing (blood/plasma and liver exposure); format: in vivo, mice (C57/bl6/J); details: 20 mg/kg single oral dose
Protocol: The pharmacokinetics of the compounds was assessed in mice after single dosing and oral administrations. Blood/plasma and liver exposure was measured via LC-MS.
The study design was as follows:
Animals: C57/bl6/J (Janvier) males
Diet: standard rodent chow
Animal handling: animals were withdrawn from food at least 12 h before administration
Design: single dose oral administration, n=3 animals per group
Sacrifice: at stated time point (4, 12 or 24 h) after administration
Bioanalytics: LC-MS of liver and blood/plasma samples

[3] = full length LXRα, read-out: FL-M2H Gal4α (EC50 range)
[4] = full length LXRβ, read-out: FL-M2H Gal4β (EC50 range)
[5] = LXRβ LBD, read-out: LBD-M2H Gal4β (EC50 range)

Row | Structure (SMILES) | EC50 (full length (FL) LXRα; [3]) | EC50 (full length (FL) LXRβ; [4]) | other results
1 | Cc1ccc(S(=O)(=O)n2c(-c3cccc(N4CC(C(=O)O)C4)c3)c(-c3ccsc3C#N)c3cc(F)ccc32)cc1 [3/32] | 100 to 1000 nM | < 100 nM | LBD-M2H Gal4β efficacy (value in brackets) [1]: 81%; EC50 ([1]; read-out: LBD-M2H Gal4β potency): 13 nM
2 | Cc1ccc(S(=O)(=O)n2c(-c3cccc(N4CC(C(=O)O)C4)c3)c(-c3ccsc3C#N)c3cc(F)c(F)cc32)cc1 [3/42] | 100 to 1000 nM | < 100 nM | EC50 [1, 5]: < 100 nM
3 | Cc1ccc(S(=O)(=O)n2c(-c3cccc(N4CC(C(=O)O)C4)c3)c(-c3ccsc3C#N)c3cc(F)c(Cl)cc32)cc1 [3/43] | 100 to 1000 nM | < 100 nM | EC50 [1, 5]: 100 to 1000 nM
4 | Cc1ccc(S(=O)(=O)n2c(-c3cccc(N4CC(C(=O)O)C4)c3)c(-c3ccsc3C#N)c3cc(Cl)ccc32)cc1 [3/44] | < 100 nM | < 100 nM | EC50 [1, 5]: < 100 nM
5 | Cc1ccc(S(=O)(=O)n2c(-c3cccc(N4CC(C(=O)O)C4)c3)c(-c3ccsc3C#N)c3cc(C)ccc32)cc1 [3/46] | < 100 nM | < 100 nM | EC50 [1, 5]: < 100 nM
6 | Cc1ccc(S(=O)(=O)n2c(-c3cccc(-c4ccc(C(=O)O)cc4Cl)c3)c(-c3ccsc3C#N)c3cc(F)ccc32)cc1 [3/48] | < 100 nM | < 100 nM | blood/plasma exposure (below LLOQ, LLOQ given) ([2]; time point 12 h): (1.2 ng/mL); liver exposure ([2]; time point 12 h): A (A: <300 nM)
7 | O=C(O)c1ccc(-c2cccc(-c3c(-c4ccccc4C4COC4)c4cc(F)ccc4n3S(=O)(=O)c3ccc(C(F)F)cc3)c2)c(Cl)c1 [3/59] | < 100 nM | < 100 nM | –
8 | Cc1ccc(S(=O)(=O)n2c(-c3cccc(C45CCC(C(=O)O)(CC4)CC5)c3)c(-c3ccsc3C#N)c3cc(F)ccc32)cc1 [3/64] | < 100 nM | < 100 nM | –
9 | N#Cc1cccc(C#N)c1-c1c(-c2cccc(-c3c(F)cc(CC(=O)O)cc3F)c2)n(S(=O)(=O)c2ccc(C(F)F)cc2)c2ccc(F)cc12 [3/73] | < 100 nM | < 100 nM | –
10 | Cc1ccc(S(=O)(=O)n2c(-c3cccc(-c4ccc(C(=O)O)cc4)c3)c(-c3ccsc3C#N)c3cc(F)ccc32)cc1 [5/3] | – | < 100 nM | blood/plasma exposure ([2]; time point 4 h): C (C: 100 nM to <300 nM); liver exposure ([2]; time point 4 h): C (C: 1 μM to ≤3 μM); liver/blood ratio ([2]; time point 4 h): C (C: 10 to ≤30)
11 | CC(=O)NS(=O)(=O)c1ccc(-c2cccc(-c3c(-c4c(C#N)cccc4C#N)c4cc(F)ccc4n3S(=O)(=O)c3ccc(C(F)F)cc3)c2)c(Cl)c1 [8/8] | < 100 nM | < 100 nM | –
12 | N#Cc1cccc(C#N)c1-c1c(-c2cccc(-c3ccc(C(=O)NCCS(=O)(=O)O)cc3Cl)c2)n(S(=O)(=O)c2ccc(C(F)F)cc2)c2ccc(F)cc12 [10/1] | < 100 nM | < 100 nM | –
13 | CN(CCS(=O)(=O)O)C(=O)c1ccc(-c2cccc(-c3c(-c4c(C#N)cccc4C#N)c4cc(F)ccc4n3S(=O)(=O)c3ccc(C(F)F)cc3)c2)c(Cl)c1 [10/2] | < 100 nM | < 100 nM | –
14 | N#Cc1nccnc1-c1c(-c2cccc(-c3cc(F)c(C(=O)O)cc3Cl)c2)n(S(=O)(=O)c2ccc(C(F)F)cc2)c2ccc(F)cc12 [11/11] | < 100 nM | < 100 nM | –
15 | N#Cc1cccc(C#N)c1-c1c(-c2cccc(-c3ccc(C(=O)O)cc3Cl)c2)n(S(=O)(=O)c2ccc(C(F)F)cc2)c2ccc(F)cc12 [11/12] | < 100 nM | < 100 nM | –
16 | O=C(O)c1ccc(-c2cccc(-c3c(-c4c(Cl)cccc4Cl)c4cc(F)ccc4n3S(=O)(=O)c3ccc(C(F)F)cc3)c2)c(Cl)c1 [11/13] | < 100 nM | < 100 nM | –
17 | N#Cc1sccc1-c1c(-c2cccc(-c3ccc(C(=O)O)cc3Cl)c2)n(S(=O)(=O)c2ccc(C(F)(F)F)nc2)c2ccc(F)cc12 [11/16] | < 100 nM | < 100 nM | –
18 | O=C(O)c1ccc(-c2cccc(-c3c(-c4ncccc4C(F)(F)F)c4cc(F)ccc4n3S(=O)(=O)c3ccc(C(F)F)cc3)c2)c(Cl)c1 [11/23] | < 100 nM | < 100 nM | –
19 | N#Cc1cccnc1-c1c(-c2cccc(-c3ccc(C(=O)O)cc3Cl)c2)n(S(=O)(=O)c2ccc(C(F)F)cc2)c2ccc(F)cc12 [11/26] | < 100 nM | < 100 nM | –
20 | COc1c(C(=O)O)ccc(-c2cccc(-c3c(-c4ccccc4C#N)c4cc(F)ccc4n3S(=O)(=O)c3ccc(C(F)F)cc3)c2)c1Cl [11/27] | < 100 nM | < 100 nM | –
21 | N#Cc1ccccc1-c1c(-c2cccc(-c3ccc(C(=O)O)cc3Cl)c2)n(S(=O)(=O)c2ccc(C(F)F)cc2)c2ccc(F)cc12 [11/33] | < 100 nM | < 100 nM | FL-M2H Gal4α efficacy (value in brackets) (full length (FL) LXRα): 164%; EC50 (full length (FL) LXRα; read-out: FL-M2H Gal4α potency): 1.3 nM; FL-M2H Gal4β efficacy (value in brackets) (full length (FL) LXRβ): 130%; EC50 (full length (FL) LXRβ; read-out: FL-M2H Gal4β potency): 1.7 nM
22 | N#Cc1cccc(C#N)c1-c1c(-c2cccc(-c3ccc(C(=O)O)cc3Cl)c2)n(S(=O)(=O)c2ccc(C(F)(F)F)nc2)c2ccc(F)cc12 [11/37] | < 100 nM | < 100 nM | –
23 | N#Cc1ccccc1-c1c(-c2cccc(-c3ccc(C(=O)O)cc3Cl)c2)n(S(=O)(=O)c2ccc(C(F)F)cc2)c2cnccc12 [11/49] | < 100 nM | < 100 nM | –
24 | N#Cc1cccc(C#N)c1-c1c(-c2cccc(-c3ccc(C(=O)O)cc3F)c2)n(S(=O)(=O)c2ccc(C(F)F)cc2)c2ccc(F)cc12 [11/51] | < 100 nM | < 100 nM | –
25 | N#Cc1cccc(C#N)c1-c1c(-c2cccc(-c3c(F)cc(C(=O)O)cc3F)c2)n(S(=O)(=O)c2ccc(C(F)F)cc2)c2ccc(F)cc12 [11/53] | < 100 nM | < 100 nM | –
26 | N#Cc1cccc(C#N)c1-c1c(-c2cccc(-c3ccc(C(=O)O)cc3Cl)c2)n(S(=O)(=O)C2CCC(F)(F)CC2)c2ccc(F)cc12 [11/63] | < 100 nM | < 100 nM | –
27 | N#Cc1cccc(C#N)c1-c1c(-c2cccc(-c3cc(F)c(C(=O)O)cc3Cl)c2)n(S(=O)(=O)c2ccc(C(F)F)cc2)c2ccc(F)cc12 [11/65] | < 100 nM | < 100 nM | –
28 | N#Cc1cccc(C#N)c1-c1c(-c2cccc(-c3ccc(C(=O)NCC(=O)O)cc3Cl)c2)n(S(=O)(=O)c2ccc(C(F)F)cc2)c2ccc(F)cc12 [21/3] | < 100 nM | < 100 nM | –
29 | Cc1ccc(S(=O)(=O)n2c(-c3cccc(-c4ccc(C(=O)O)cc4)c3)c(-c3ccsc3C#N)c3cc(F)ccc32)cc1C [23/2] | < 100 nM | < 100 nM | blood/plasma exposure ([2]; time point 4 h): B (B: 300 nM to ≤1 μM); liver exposure ([2]; time point 4 h): D (D: >3 μM); liver/blood ratio ([2]; time point 4 h): C (C: 10 to ≤30)
